In general, pIC50 refers to the IC50 on a negative log10 scale, so that one unit is a factor of ten. As a reminder, the pEC50 is the EC50 on a negative log10 scale, so that one unit is a factor of ten. What is called clearance is the rate of elimination divided by the concentration. Read a high clearance as efficient removal. A word on the half-life: it is how long it takes for the measured level to halve.

pEC50, pIC50: −log10 of the molar value.

The target of data set [1] is Poly [ADP-ribose] polymerase 1 (Homo sapiens, UniProt P09874). The data set can be described thus: Inhibition of PARP1 (unknown origin) using histone as substrate by ELISA. (In general: In an ELISA, binding on a coated surface is turned into a signal by an enzyme label.)
In data set [2] the test system is CAPAN-1. The data set can be described thus: Antiproliferative activity against human CAPAN-1 cells assessed as cell proliferation inhibition incubated for 7 days by SRB assay. The format is functional, cell-based. (In SRB staining, fixed cells bind dye roughly in proportion to their protein.)
Data set [3] is described as follows: Antiproliferative activity against human Olaparib-resistant CAPAN-1 cells assessed as cell proliferation inhibition incubated for 7 days by SRB assay. The format is functional, cell-based.
Data set [4] has as its system CAPAN-1. The data set can be described thus: Antiproliferative activity against human Talazoparib-resistant CAPAN-1 cells assessed as cell proliferation inhibition incubated for 7 days by SRB assay. The format is functional, cell-based.
Data set [5] can be described thus: Stabilization of human His-tagged PARP1-DNA complex assessed as increase in fluorescence signal incubated for 60 mins using NAD+ as substrate by DSB fluorescence polarization assay.
Data set [6] in a line: Clearance in Sprague-Dawley rat at 5 mg/kg, iv and measured upto 24 hrs. Format: ADME, organism-based. As to conditions: in vivo.
A short description of data set [7]: Half life in Sprague-Dawley rat at 5 mg/kg, iv and measured upto 24 hrs. Format: ADME, organism-based. The conditions noted are these: in vivo.

Chain of Poly [ADP-ribose] polymerase 1 (P09874 whole entry): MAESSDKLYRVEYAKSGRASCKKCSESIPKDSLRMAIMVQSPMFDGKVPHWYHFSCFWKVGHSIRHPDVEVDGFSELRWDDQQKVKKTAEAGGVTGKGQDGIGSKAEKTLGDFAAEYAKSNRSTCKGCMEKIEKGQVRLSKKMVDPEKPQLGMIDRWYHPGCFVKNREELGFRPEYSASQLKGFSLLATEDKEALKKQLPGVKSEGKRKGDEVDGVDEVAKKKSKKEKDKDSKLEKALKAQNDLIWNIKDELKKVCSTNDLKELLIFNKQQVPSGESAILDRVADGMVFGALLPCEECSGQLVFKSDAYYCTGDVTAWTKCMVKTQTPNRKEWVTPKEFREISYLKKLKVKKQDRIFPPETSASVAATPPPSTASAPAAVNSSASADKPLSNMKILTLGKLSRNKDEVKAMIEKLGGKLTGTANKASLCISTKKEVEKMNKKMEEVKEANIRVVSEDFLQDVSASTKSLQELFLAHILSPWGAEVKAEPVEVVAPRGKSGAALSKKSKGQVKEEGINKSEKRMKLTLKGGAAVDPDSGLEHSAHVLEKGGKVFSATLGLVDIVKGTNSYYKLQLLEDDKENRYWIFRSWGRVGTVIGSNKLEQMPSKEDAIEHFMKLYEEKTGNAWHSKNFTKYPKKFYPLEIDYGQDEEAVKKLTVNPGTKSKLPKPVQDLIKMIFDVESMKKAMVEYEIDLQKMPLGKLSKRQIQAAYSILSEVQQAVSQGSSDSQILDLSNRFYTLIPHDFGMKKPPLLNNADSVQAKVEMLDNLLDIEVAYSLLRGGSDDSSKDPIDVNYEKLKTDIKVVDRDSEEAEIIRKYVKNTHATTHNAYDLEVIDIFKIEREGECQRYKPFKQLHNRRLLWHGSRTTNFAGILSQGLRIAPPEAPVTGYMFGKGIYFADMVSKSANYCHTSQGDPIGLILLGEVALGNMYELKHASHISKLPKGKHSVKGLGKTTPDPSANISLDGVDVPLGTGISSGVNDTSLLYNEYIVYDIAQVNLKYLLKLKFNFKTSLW

Consider `O=C(c1cc(Cc2n[nH]c(=O)c3ccccc23)ccc1F)N1CCn2c(nnc2-c2ccc(CN3CCC3)o2)C1`, for which the pIC50 is 9.02 in data set [1], 6.46 in the data set on CAPAN-1 [2], 5.19 in data set [3] and 5.25 with CAPAN-1 [4].

With `Cn1ncnc1[C@H]1c2n[nH]c(=O)c3cc(F)cc(c23)N[C@@H]1c1ccc(F)cc1` [TALAZOPARIB], the results for the pIC50 (with CAPAN-1 [2]; in data set [3]; with CAPAN-1 [4]) were 8.11, 6.16 and 6.04, respectively.

Turning to `Cn1ccc(-c2nnc3n2CCN(C(=O)c2cc(Cc4n[nH]c(=O)c5ccccc45)ccc2F)C3)n1`, the pIC50 in data set [1] was 8.20; with CAPAN-1 [2], 7.52; in data set [3], 6.87; with CAPAN-1 [4] it was 6.78.

As to `NC(=O)c1cccc2cn(-c3ccc([C@@H]4CCCNC4)cc3)nc12` [NIRAPARIB], the pEC50 in data set [5] was 6.21.

For `O=C(c1cc(Cc2n[nH]c(=O)c3ccccc23)ccc1F)N1CCn2c(nnc2-c2ccc(CN3CCSCC3)o2)C1`, the pIC50 in data set [1] is 10.70; with CAPAN-1 [2] it was 7.30; in data set [3] it was 6.21; in the data set with CAPAN-1 [4] it was 6.39.

Regarding `O=C(c1cc(Cc2n[nH]c(=O)c3ccccc23)ccc1F)N1CCn2c(nnc2-c2ccc(C(F)(F)F)o2)C1`, the pIC50 in data set [1] is 7.21; in the data set with CAPAN-1 [2], 8.63; in data set [3] it was 7.28; in the data set on CAPAN-1 [4], 8.22.

`O=C(c1cc(Cc2n[nH]c(=O)c3ccccc23)ccc1F)N1CCn2c(nnc2-c2ccc(CN3CCCC3)o2)C1`: the pIC50 was 8.90 in data set [1], 6.79 in the data set on CAPAN-1 [2], 5.84 in data set [3] and 6.04 in the data set on CAPAN-1 [4].

Take `CP(C)(=O)c1ccc(-c2nnc3n2CCN(C(=O)c2cc(Cc4n[nH]c(=O)c5ccccc45)ccc2F)C3)o1`: the pIC50 in data set [1] was 7.89; with CAPAN-1 [2] it was 5.45; in data set [3], < 5.00; with CAPAN-1 [4], < 5.00.

`O=C(c1cc(Cc2n[nH]c(=O)c3ccccc23)ccc1F)N1CCn2c(nnc2-c2ccc(C(F)(F)CO)o2)C1`: the pIC50 in data set [1] was 8.25; in the data set with CAPAN-1 [2], 7.80; in data set [3], 6.86; in the data set with CAPAN-1 [4], 6.94.

Take `CCN(CC)Cc1ccc(-c2nnc3n2CCN(C(=O)c2cc(Cc4n[nH]c(=O)c5ccccc45)ccc2F)C3)o1`: the negative logarithm of the IC50 (pIC50) is 9.02 in data set [1], 7.01 with CAPAN-1 [2], 6.09 in data set [3] and 6.15 in the data set on CAPAN-1 [4].

`N#Cc1ccc(-c2nnc3n2CCN(C(=O)c2cc(Cc4n[nH]c(=O)c5ccccc45)ccc2F)C3)o1`: the pIC50 in data set [1] is 9.64; in the data set with CAPAN-1 [2] it was 7.08; with CAPAN-1 [4], < 5.00.

In the case of `O=C(c1cc(Cc2n[nH]c(=O)c3ccccc23)ccc1F)N1CCn2c(nnc2-c2ccc(C3COC3)o2)C1`, the negative logarithm of the IC50 (pIC50) in data set [1] is 8.21; with CAPAN-1 [2] it was 7.81; in data set [3] it was 6.44; with CAPAN-1 [4] it was 6.72.

Consider `Cc1cccc(-c2nnc3n2CCN(C(=O)c2cc(Cc4n[nH]c(=O)c5ccccc45)ccc2F)C3)n1`, for which the pIC50 in data set [1] was 7.87; with CAPAN-1 [2], 8.19; in data set [3], 7.37; in the data set on CAPAN-1 [4], 7.16.

`Cc1ccc(-c2nnc3n2CCN(C(=O)c2cc(Cc4n[nH]c(=O)c5ccccc45)ccc2F)C3)o1`: the pIC50 in data set [1] was 9.62; in the data set on CAPAN-1 [2] it was 8.74; in data set [3], 8.08; with CAPAN-1 [4], 8.00.

As for `Cc1cc(-c2nnc3n2CCN(C(=O)c2cc(Cc4n[nH]c(=O)c5ccccc45)ccc2F)C3)oc1C`, the pIC50 in data set [1] is > 12.00; in the data set on CAPAN-1 [2], 8.84; in data set [3], 7.65; in the data set with CAPAN-1 [4] it was 7.68.

With `Cc1nc(-c2nnc3n2CCN(C(=O)c2cc(Cc4n[nH]c(=O)c5ccccc45)ccc2F)C3)cs1`, the pIC50 in data set [1] was 8.67; in the data set on CAPAN-1 [2] it was 7.72; with CAPAN-1 [4], 6.69.

For `O=C(c1cc(Cc2n[nH]c(=O)c3ccccc23)ccc1F)N1CCn2c(nnc2-c2ccc(CN3CCCCC3)o2)C1`, the pIC50 is 9.77 in data set [1], 7.25 with CAPAN-1 [2], 6.22 in data set [3] and 6.41 with CAPAN-1 [4].

Regarding `O=C(c1cc(Cc2n[nH]c(=O)c3ccccc23)ccc1F)N1CCn2c(nnc2-c2ccc(CN3CCOCC3)o2)C1`, the negative-log IC50 (pIC50) in data set [1] was 8.89; in the data set on CAPAN-1 [2], 6.54; in data set [3], 5.29; with CAPAN-1 [4] it was 5.70.

Turning to `CNCc1ccc(-c2nnc3n2CCN(C(=O)c2cc(Cc4n[nH]c(=O)c5ccccc45)ccc2F)C3)o1`, the negative-log IC50 (pIC50) in data set [1] was 9.07; in the data set on CAPAN-1 [2], 6.30; in data set [3], 5.21; in the data set with CAPAN-1 [4], 5.34.

Regarding `O=C(c1cc(Cc2n[nH]c(=O)c3ccccc23)ccc1F)N1CCn2c(nnc2C2CCOC2)C1` (stereo not given), the pIC50 in data set [1] was 8.72; with CAPAN-1 [2] it was 7.41; in data set [3], 5.96; in the data set with CAPAN-1 [4], 6.29.

With `O=C(c1cc(Cc2n[nH]c(=O)c3ccccc23)ccc1F)N1CCn2c(nnc2-c2ccc(C(F)F)o2)C1`, the pIC50 in data set [1] was 7.64; in the data set with CAPAN-1 [2], 8.18; in data set [3] it was 7.15; in the data set on CAPAN-1 [4], 7.15.

For the compound `O=C(c1cc(Cc2n[nH]c(=O)c3ccccc23)ccc1F)N1CCn2c(nnc2-c2ccc(C3CCOCC3)o2)C1`, the pIC50 is 8.63 in data set [1], 8.42 in the data set on CAPAN-1 [2], 7.11 in data set [3] and 7.11 in the data set with CAPAN-1 [4].

As to `Cn1cc(-c2nnc3n2CCN(C(=O)c2cc(Cc4n[nH]c(=O)c5ccccc45)ccc2F)C3)cn1`, the pIC50 is 8.14 in data set [1], 6.46 with CAPAN-1 [2], 5.14 in data set [3] and 5.16 in the data set with CAPAN-1 [4].

For `CN(C)Cc1ccc(-c2nnc3n2CCN(C(=O)c2cc(Cc4n[nH]c(=O)c5ccccc45)ccc2F)C3)o1`, the pIC50 was 8.87 in data set [1], 6.82 in the data set on CAPAN-1 [2], 5.99 in data set [3] and 6.03 in the data set on CAPAN-1 [4].

Turning to `CNCC(F)(F)c1ccc(-c2nnc3n2CCN(C(=O)c2cc(Cc4n[nH]c(=O)c5ccccc45)ccc2F)C3)o1`, the pIC50 is 8.09 in data set [1], 7.61 in the data set on CAPAN-1 [2], 6.37 in data set [3] and 6.41 with CAPAN-1 [4].

Take `O=C(c1cc(Cc2n[nH]c(=O)c3ccccc23)ccc1F)N1CCn2c(nnc2-c2ccoc2)C1`: the negative-log IC50 (pIC50) in data set [1] is 9.36; with CAPAN-1 [2] it was 8.06; in data set [3], 7.13; with CAPAN-1 [4] it was 7.37.

For `O=C(c1cc(Cc2n[nH]c(=O)c3ccccc23)ccc1F)N1CCn2c(nnc2-c2ccno2)C1`, the pIC50 in data set [1] is 9.01; in the data set on CAPAN-1 [2] it was 7.73; in data set [3], 6.46; in the data set with CAPAN-1 [4], 6.60.

For `O=C(c1cc(Cc2n[nH]c(=O)c3ccccc23)ccc1F)N1CCN(C(=O)C2CC2)CC1` [OLAPARIB], the clearance in data set [6] amounted to 34.3 mL/min/kg. Moreover, the pEC50 in data set [5] was 6.63. Besides, the half-life in data set [7] was 31.8 min.

With `O=C(c1cc(Cc2n[nH]c(=O)c3ccccc23)ccc1F)N1CCn2c(nnc2-c2cc(Br)c(Cl)o2)C1`, the pIC50 is > 10.00 in data set [1], 9.62 in the data set on CAPAN-1 [2], 7.69 in data set [3] and 7.92 in the data set on CAPAN-1 [4].

Take `O=C(c1cc(Cc2n[nH]c(=O)c3ccccc23)ccc1F)N1CCn2c(nnc2-c2ccco2)C1`: the pIC50 in data set [1] is 9.59; in the data set with CAPAN-1 [2] it was 8.13; in data set [3] it was 7.25; with CAPAN-1 [4], 7.40.

As to `O=C(c1cc(Cc2n[nH]c(=O)c3ccccc23)ccc1F)N1CCn2c(nnc2-c2ccc(Cl)o2)C1`, the pIC50 is 9.13 in data set [1], 8.83 in the data set on CAPAN-1 [2], 7.90 in data set [3] and 8.23 in the data set with CAPAN-1 [4].

With `NCC(F)(F)c1ccc(-c2nnc3n2CCN(C(=O)c2cc(Cc4n[nH]c(=O)c5ccccc45)ccc2F)C3)o1`, the pIC50 in data set [1] is 8.07; with CAPAN-1 [2], 6.91; in data set [3] it was 6.12; with CAPAN-1 [4], 6.20.

Turning to `O=C(c1cc(Cc2n[nH]c(=O)c3ccccc23)ccc1F)N1CCn2c(nnc2-c2ccc([N+](=O)[O-])o2)C1`, the pIC50 in data set [1] is 7.32; with CAPAN-1 [2], 8.23; in data set [3], 6.75; in the data set with CAPAN-1 [4], 6.67.

These data come from ChEMBL document CHEMBL5365431 (J Med Chem, 2023).
